Test results reported in US20060100431A1, “Biologically active compounds” (Amura Therapeutics Limited, priority 2002, published 2006).

Legend:
Format in all cases: biochemical
Wild-type cruzipain = Wild-type cruzipain (Trypanosoma cruzi, UniProt P25779); assay: Trypanosoma cruzi cruzipain peptidase activity assay (Ki); details: read-out: Ki, inhibitors of cruzain and cruzipains
Outline: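 Native cruzipain from T. cruzi Dm28 epimastigotes, 2.5 nM, in 100 mM sodium phosphate pH 6.75 with 1 mM EDTA and 10 mM L-cysteine, 25 °C, DMSO <1%. Rates taken from continuous fluorogenic substrate read; Ki by regression assuming reversible pure-competitive inhibition.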

human cathepsin L = target: T1, human cathepsin L (Homo sapiens, UniProt P07711); assay: Cathepsin L peptidase activity assay (Ki); details: read-out: Ki, inhibitors of cathepsin L
T1 construct: purchased CN Biosciences
T1 sequence (P07711 114-333): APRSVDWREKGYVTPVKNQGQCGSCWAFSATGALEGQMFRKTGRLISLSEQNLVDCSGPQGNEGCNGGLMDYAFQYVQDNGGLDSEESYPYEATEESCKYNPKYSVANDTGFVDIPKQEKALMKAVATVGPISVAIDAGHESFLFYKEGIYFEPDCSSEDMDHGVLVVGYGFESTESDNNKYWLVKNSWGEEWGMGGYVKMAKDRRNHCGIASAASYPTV
Protocol: Unless otherwise stated, all general chemicals and biochemicals were purchased from either the Sigma Chemical Company, Poole, Dorset, U.K or from Fisher Scientific UK, Loughborough, Leicestershire, U.K. Absorbance assays were carried out in flat-bottomed 96-well plates (Spectra; Greiner Bio-One Ltd., Stonehouse, Gloucestershire, U.K.) using a SpectraMax PLUS384 plate reader (Molecular Devices, Crawley, U.K.). Fluorescence high throughput assays were carried out in either 384-well microtitre plates (Corning Costar 3705 plates, Fisher Scientific) or 96-well ‘U’ bottomed Microfluor W1 microtitre plates (Thermo Labsystems, Ashford, Middlesex, U.K.). Fluorescence assays were monitored using a SpectraMax Gemini fluorescence plate reader (Molecular Devices). For substrates employing either a 7-amino-4-methylcoumarin (AMC) or a 7-amino-4-trifluoromethylcoumarin (AFC) fluorophore, assays were monitored at an excitation wavelength of 365 nm and an emission wavelength of 450 nm and the fluorescence plate reader calibrated with AMC. For substrates employing a 3-amino-benzoyl (Abz) fluorophore, assays were monitored at an excitation wavelength of 310 nm and an emission wavelength of 445 nm; the fluorescence plate reader calibrated with 3-amino-benzamide (Fluka). Unless otherwise indicated, all the peptidase substrates were purchased from Bachem UK, St Helens, Merseyside, UK. Substrates utilizing fluorescence resonance energy transfer methodology (i.e. FRET-based substrates) were synthesized at Incenta Limited using published methods (Atherton & Sheppard, Solid Phase Peptide Synthesis, IRL Press, Oxford, U.K, 1989) and employed Abz (2-aminobenzoyl) as the fluorescence donor and 3-nitro-tyrosine [Tyr(NO2)] as the fluorescence quencher (Meldal, M. and Breddam, K., Anal. Biochem, 195, 141-147, 1991). Hydroxyethylpiperazine ethanesulfonate (HEPES), tris-hydroxylmethyl aminomethane (tris) base, bis-tris-propane and all the biological detergents (e.g. CHAPS, zwittergents, etc.) were purchased from CN Biosciences UK, Beeston, Nottinghamshire, U.K. Glycerol was purchased from Amersham Pharmacia Biotech, Little Chalfont, Buckinghamshire, U.K. Stock solutions of substrate or inhibitor were made up to 10 mM in 100% dimethylsulfoxide (DMSO) (Rathburns, Glasgow, U.K.) and diluted as appropriately required. In all cases the DMSO concentration in the assays was maintained at less than 1% (vol./vol.).
Assay protocols were based on literature precedent (Table 4; Barrett, A. J., Rawlings, N. D. and Woessner, J. F., 1998, Handbook of Proteolytic Enzymes, Academic Press, London and references therein) and modified as required to suit local assay protocols. Enzyme was added as required to initiate the reaction and the activity, as judged by the change in fluorescence upon conversion of substrate to product, was monitored over time. All assays were carried out at 25±1° C.
Bovine cathepsin S, human cathepsin L, human cathepsin H and human cathepsin B were obtained from CN Biosciences. Recombinant human cathepsin S, human cathepsin K and human cathepsin X were obtained from Dr. Boris Turk (Josef Stefan Institute, Ljubljana, Slovenia). Unless otherwise stated, all peptidase activity assays were carried out in 10 mM bis-tris-propane (BTP), pH 6.5 containing 1 mM EDTA, 5 mM 2-mercaptoethanol and 1 mM CaCl2. Human cathepsin H activity assays were carried out in 10 mM BTP pH 6.5, 142 mM NaCl2, 1 mM CaCl2, 1 mM EDTA, 1 mM DTT, 0.035 mM Zwittergent 3-16. Human cathepsin K assays were carried out in 100 mM sodium acetate; pH 5.5 containing 20 mM L-cysteine and 1 mM EDTA (Bossard, M. J., et. al., J. Biol. Chem., 21, 12517-12524, 1996). Human cathepsin X assays were carried out in 100 mM sodium acetate; pH 5.5 containing 20 mM L-cysteine; 0.05% (w/v) Brij 35 and 1 mM EDTA (Santamaria, I., et. al., J. Biol. Chem., 273, 16816-16823, 1998; Klemencic, J, et al., Eur. J. Biochem., 267, 5404-5412, 2000). […]

CPB2.8ΔCTE = target: T2, CPB2.8ΔCTE (Leishmania mexicana, UniProt P36400); assay: Leishmania mexicana cysteine protease B (CPB) peptidase activity assay (Ki); details: Ki, inhibitors of Leismania mexicana CPB protease
T2 construct: Wild-type recombinant CPB without the C-terminal extention (i.e. CPB2.8ΔCTE); Dr. Jeremy Mottram (Wellcome Centre for Molecular Parasitology, University of Glasgow)
T2 sequence (P36400 126-343, stated change not applied): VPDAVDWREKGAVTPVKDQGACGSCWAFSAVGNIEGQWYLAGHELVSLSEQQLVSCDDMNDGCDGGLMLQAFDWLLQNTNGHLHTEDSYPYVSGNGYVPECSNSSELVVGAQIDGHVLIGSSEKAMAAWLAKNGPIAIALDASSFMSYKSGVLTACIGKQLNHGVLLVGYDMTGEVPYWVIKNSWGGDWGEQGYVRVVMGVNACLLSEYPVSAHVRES
Outline: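 Apparent Ki was derived by regression of activity against inhibitor concentration, assuming pure-competitive reversible binding. Reaction: 0.25 nM CPB lacking the C-terminal extension, pH 5.5 acetate buffer (1 mM EDTA, 200 mM NaCl, 10 mM DTT), 25 °C, followed by continuous substrate fluorescence.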

Chain of Wild-type cruzipain (P25779 whole entry): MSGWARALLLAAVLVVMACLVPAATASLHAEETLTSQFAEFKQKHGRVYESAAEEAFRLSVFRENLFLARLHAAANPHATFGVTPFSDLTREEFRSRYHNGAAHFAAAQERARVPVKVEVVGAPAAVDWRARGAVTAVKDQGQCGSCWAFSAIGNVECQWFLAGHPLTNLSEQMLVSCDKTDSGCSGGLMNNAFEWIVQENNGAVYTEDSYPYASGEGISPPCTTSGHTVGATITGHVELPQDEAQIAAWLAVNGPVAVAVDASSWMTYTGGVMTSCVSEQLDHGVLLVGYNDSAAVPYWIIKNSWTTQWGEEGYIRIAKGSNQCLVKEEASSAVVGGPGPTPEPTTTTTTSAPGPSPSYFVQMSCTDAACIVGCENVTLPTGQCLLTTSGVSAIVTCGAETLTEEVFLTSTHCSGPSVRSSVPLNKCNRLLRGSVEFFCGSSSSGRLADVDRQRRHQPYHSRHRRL

Structure (SMILES) | Ki (Wild-type cruzipain) [µM] | Ki (human cathepsin L) [µM] | Ki (CPB2.8ΔCTE) [µM]
CC(C)C[C@H](NC(=O)c1ccc(N(C)C)cc1)C(=O)N1CC[C@@H]2[C@H]1C(=O)CN2C(=O)c1cccc(F)c1 [Example 63, (3aR,6aS)-4-Dimethylamino-N-{(1S)-1-[4-(3-fluoro-benzoyl)-6-oxo-hexahydro-pyrrolo[3,2-b]pyrrole-1-carbonyl]-3-methyl-butyl}-benzamide] | < 5 | < 5 | < 5
CC(C)C[C@H](NC(=O)c1ccc(N(C)C)cc1)C(=O)N1CC[C@@H]2[C@H]1C(=O)CN2C(=O)c1cccc(C(F)(F)F)c1 [Example 68, (3aR,6aS)-4-Dimethylamino-N-{(1S)-3-methyl-1-[6-oxo-4-(3-trifluoromethyl-benzoyl)-hexahydro-pyrrolo[3,2-b]pyrrole-1-carbonyl]-butyl}-benzamide] | < 5 | < 5 | < 5
Cc1cc(C)cc(C(=O)N2CC(=O)[C@@H]3[C@H]2CCN3C(=O)[C@H](CC(C)C)NC(=O)c2ccc(N(C)C)cc2)c1 [Example 111, (3aR,6aS)-4-Dimethylamino-N-{(1S)-1-[4-(3,5-dimethyl-benzoyl)-6-oxo-hexahydro-pyrrolo[3,2-b]pyrrole-1-carbonyl]-3-methyl-butyl}-benzamide] | < 5 | < 5 | < 5
CC(C)C[C@H](NC(=O)c1ccc([N+](C)(C)[O-])cc1)C(=O)N1CC[C@@H]2[C@H]1C(=O)CN2C(=O)c1ccccc1 [Example 117, (3aR,6aS)-N-[(1S)-1-(4-Benzoyl-6-oxo-hexahydro-pyrrolo[3,2-b]pyrrole-1-carbonyl)-3-methyl-butyl]-4-(N-oxy-dimethylamino)-benzamide] | < 5 | < 5 | < 5
CC(C)C[C@H](NC(=O)c1cccc(CN)c1)C(=O)N1CC[C@@H]2[C@H]1C(=O)CN2C(=O)Cc1ccccc1 [Example 118, (3aR,6aS)-3-Aminomethyl-N-[(1S)-3-methyl-1-(6-oxo-4-phenylacetyl-hexahydro-pyrrolo[3,2-b]pyrrole-1-carbonyl)-butyl]-benzamide] | < 5 | < 5 | < 5
CC(C)C[C@H](NC(=O)c1cccc(CN)c1)C(=O)N1CC[C@@H]2[C@H]1C(=O)CN2C(=O)Nc1ccccc1 [Example 175, (3aS,6aR)-4-[(2S)-2-(3-Aminomethyl-benzoylamino)-4-methyl-pentanoyl]-3-oxo-hexahydro-pyrrolo[3,2-b]pyrrole-1-carboxylic acid phenylamide] | < 5 | < 5 | < 5
CC(C)C[C@H](NC(=O)c1cccc(CN)c1)C(=O)N1CC[C@@H]2[C@H]1C(=O)CN2C(=O)Cc1ccccc1F [Example 178, (3aR,6aS)-3-Aminomethyl-N-((1S)-1-{4-[2-(2-fluoro-phenyl)-acetyl]-6-oxo-hexahydro-pyrrolo[3,2-b]pyrrole-1-carbonyl}-3-methyl-butyl)-benzamide] | – | < 5 | < 5
CC(C)C[C@H](NC(=O)c1cccc(CN)c1)C(=O)N1CC[C@@H]2[C@H]1C(=O)CN2C(=O)Cc1cccc(F)c1 [Example 179, (3aR,6aS)-3-Aminomethyl-N-((1S)-1-{4-[2-(3-fluoro-phenyl)-acetyl]-6-oxo-hexahydro-pyrrolo[3,2-b]pyrrole-1-carbonyl}-3-methyl-butyl)-benzamide] | – | < 5 | < 5
CC(C)C[C@H](NC(=O)c1cccc(CN)c1)C(=O)N1CC[C@@H]2[C@H]1C(=O)CN2C(=O)Cc1ccc(F)cc1 [Example 180, (3aR,6aS)-3-Aminomethyl-N-((1S)-1-{4-[2-(4-fluoro-phenyl)-acetyl]-6-oxo-hexahydro-pyrrolo[3,2-b]pyrrole-1-carbonyl}-3-methyl-butyl)-benzamide] | < 5 | < 5 | < 5
CC(C)C[C@H](NC(=O)c1cccc(CN)c1)C(=O)N1CC[C@@H]2[C@H]1C(=O)CN2C(=O)[C@H](N)c1ccccc1 [Example 181, (3aR,6aS)-3-Aminomethyl-N-{(1S)-1-[4-((2R)-2-amino-2-phenyl-acetyl)-6-oxo-hexahydro-pyrrolo[3,2-b]pyrrole-1-carbonyl]-3-methyl-butyl}-benzamide] | – | < 5 | < 5
CC(C)C[C@H](NC(=O)c1cccc(CN)c1)C(=O)N1CC[C@@H]2[C@H]1C(=O)CN2C(=O)[C@@H](N)c1ccccc1 [Example 182, (3aR,6aS)-3-Aminomethyl-N-{(1S)-1-[4-((2S)-2-amino-2-phenyl-acetyl)-6-oxo-hexahydro-pyrrolo[3,2-b]pyrrole-1-carbonyl)-3-methyl-butyl}-benzamide] | – | < 5 | < 5
CC(C)C[C@H](NC(=O)c1ccc(N(C)C)cc1)C(=O)N1CC[C@@H]2[C@H]1C(=O)CN2C(=O)c1ccc(Cl)o1 [Example 244, (3aR,6aS)-N-{(1S)-1-[4-(5-Chloro-furan-2-carbonyl)-6-oxo-hexahydro-pyrrolo[3,2-b]pyrrole-1-carbonyl]-3-methyl-butyl}-4-dimethylamino-benzamide] | < 5 | < 5 | –
O=C(N[C@@H](CC1CCCCC1)C(=O)N1CC[C@@H]2[C@H]1C(=O)CN2C(=O)c1ccc2ccccc2c1)c1ccsc1 [Example 256, (3aR,6aS)-Thiophene-3-carboxylic acid {(1S)-1-cyclohexylmethyl-2-[4-(naphthalene-2-carbonyl)-6-oxo-hexahydro-pyrrolo[3,2-b]pyrrol-1-yl]-2-oxo-ethyl}-amide] | < 5 | < 5 | –
NCc1cccc(C(=O)N[C@@H](CSCc2ccccc2)C(=O)N2CC[C@@H]3[C@H]2C(=O)CN3C(=O)c2ccccc2)c1 [Example 278, (3aR,6aS)-3-Aminomethyl-N-[(1R)-2-(4-benzoyl-6-oxo-hexahydro-pyrrolo[3,2-b]pyrrole-1-yl)-1-benzylsulfanylmethyl-2-oxo-ethyl]-benzamide] | – | < 5 | < 5
O=C(N[C@@H](CC1CCCCC1)C(=O)N1CC[C@@H]2[C@H]1C(=O)CN2C(=O)c1ccccc1)c1cccs1 [Example 287, (3aR,6aS)-Thiophene-2-carboxylic acid [(1S)-2-(4-benzoyl-6-oxo-hexahydro-pyrrolo[3,2-b]pyrrole-1-yl)-1-cyclohexylmethyl-2-oxo-ethyl]-amide] | < 5 | < 5 | –
O=C(N[C@@H](CC1CCCCC1)C(=O)N1CC[C@@H]2[C@H]1C(=O)CN2C(=O)c1ccccc1)c1ccco1 [Example 288, (3aR,6aS)-Furan-2-carboxylic acid [(1S)-2-(4-benzoyl-6-oxo-hexahydro-pyrrolo[3,2-b]pyrrole-1-yl)-1-cyclohexylmethyl-2-oxo-ethyl]-amide] | < 5 | < 5 | –
